Measurements published in US20260285874A1, “SALT FORM AND CRYSTAL FORM OF THIENOPYRIMIDINE COMPOUND, AND PREPARATION METHOD THEREFOR AND USE THEREOF” (SHANDONG LUYE PHARMACEUTICAL CO., LTD., priority 2023, published 2026).

How the values were obtained:
human GnRHR [1] = target: T1, human GnRHR (Homo sapiens, UniProt P30968); assay: In vitro antagonistic activity screening (FLIPR calcium fluorescence, leuprolide acetate stimulation); format: cell-based
T1 sequence (P30968 1-328): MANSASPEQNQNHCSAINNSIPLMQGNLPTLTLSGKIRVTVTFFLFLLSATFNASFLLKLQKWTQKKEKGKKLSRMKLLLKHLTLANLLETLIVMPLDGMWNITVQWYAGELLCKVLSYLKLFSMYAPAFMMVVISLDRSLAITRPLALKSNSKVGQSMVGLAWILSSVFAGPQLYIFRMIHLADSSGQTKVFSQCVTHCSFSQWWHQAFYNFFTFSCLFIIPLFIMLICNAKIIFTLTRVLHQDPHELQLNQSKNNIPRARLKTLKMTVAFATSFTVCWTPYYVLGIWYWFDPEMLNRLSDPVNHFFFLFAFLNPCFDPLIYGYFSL
Experimental: • Cell: HEK293 cells stably expressing human GnRHR (WuXi AppTec (Shanghai) Co., Ltd.) • Equipment: 384-well plate, Greiner; Vi-cell XR Cell Viability Analyzer, Beckman Coulter; incubator, Thermo. • Method: HEK293 cells stably expressing human GnRHR were seeded into a 384-well plate at a density of 20,000 cells/well. Fluo-4 Direct™ No-wash Loading Buffer (Invitrogen) was added to each well the next day, and then the plate was put back into an incubator, incubated at 37° C. for 50 min, and then incubated at room temperature for 10 min. […] Fluorescence was measured using a FLIPR Tetra high-throughput real-time fluorescence assay and analysis system. Then 10 μL of Leuprolide acetate was added, and fluorescence was measured. The IC50 and IC90 of the compound were calculated using Prism.

[2] = target: T2, human hERG potassium channel (Homo sapiens, UniProt Q12809); assay: hERG test (QPatch automated patch clamp, CHO cells); format: cell-based
T2 construct: host or cells: CHO
Experimental: • Cell: CHO cells stably expressing a human hERG potassium channel (WuXi AppTec (Shanghai) Co., Ltd.) • Reagents: physiological solution (PH=7.4): 140 mM NaCl, 4 mM KCl, 2 mM CaCl2), 1 mM MgCl2, 5 mM glucose, 10 mM HEPES, osmolarity: about 298 mOsm; external solution (PH=7.4): 80 mM NaCl, 4 mM KCl, 2 mM CaCl2, 1 mM MgCl2, 5 mM glucose, 60 mM NMDG, 10 mM HEPES, osmolarity: about 289 mOsm; and internal solution (PH=7.4): 10 mM NaCl, 10 mM KCl, 110 mM KF, 10 mM HEPES, EGTA: […], osmolarity: about 280 mOsm. • Equipment: QPatch high-throughput automated patch clamp system, Sophion. • Method: CHO cells stably expressing a human hERG potassium channel were digested with TrypLE and resuspended in the physiological solution for later use. The single-cell high-impedance sealing and whole-cell mode formation processes were automatically completed by Qpatch. The cells were clamped at a voltage of −80 mV, then a voltage of −50 mV was applied for 80 ms to subtract (current) leakage, and a voltage of +20 mV was applied for 4800 ms to open the hERG channel. The voltage was then reduced to −50 mV and maintained for 5000 ms. This process was used for data collection and analysis. Finally, the voltage was returned to the clamping voltage (−80 mV, 1000 ms). This process was repeated every 20,000 ms. […]

Caco-2 cells = assay: Permeability and transporter substrate evaluation in Caco-2 monolayer; format: in vitro ADME
Experimental: • Cell: Caco-2 cells • Instruments: water purification instrument, ELGA Lab Wate; biosafety cabinet, NUAIRE; thermostatic CO2 incubator, Thermo; microplate reader, PerkinElmer; LC-MS/MS, AB SCIEX. • Method: A Caco-2 monolayer cell model was used to determine the two-way permeability of the test substance and evaluate whether the test substance was transported via efflux by a transporter. In the experiment, Caco-2 cells were seeded into a 96-well cell culture plate and cultured for 28 consecutive days before a transport assay. The test substance was administered on two sides. After 120 min of incubation, samples of apical end A, basal end B, and the cell lysate were collected, and the content of the test substance in the samples was quantitatively determined using a liquid chromatography-tandem mass spectrometry (LC/MS/MS) method. The apparent permeability coefficients (Papp) in the direction from the apical end to the basal end (A-B) and in the direction from the basal end to the apical end (B-A) and the efflux ratio were calculated based on the concentration of the test substance.

[3] = In vivo pharmacokinetics in SD rats; settings: intragastric administration group
Experimental: (§1) • Rats: SD rats, male, 200-250 g • Instruments: water purification instrument, Millipore; electronic balance, METTLER TOLEDO; high-speed benchtop centrifuge, Thermo; water bath thermostatic oscillator, Shanghai Yiheng Technical Co., Ltd.; vortex oscillator, Thermo; LC-MS/MS, AB SCIEX. • Method: Solutions of all compounds were prepared using DMSO and 20% solutol. In the pharmacokinetic experiment, the administration dose for the intravenous group (i.v) was 1 mg/kg, and the administration dose for the intragastric group (i.g) was 12 mg/kg; each group contained 3 rats. Blood was collected from the orbit of the rats before administration (0 h) and at set time points after administration. In the tissue distribution experimental group, the rats were intragastrically dosed at 12 mg/kg. […] in a heparinized EP tube and centrifuged at 13,500 rpm for 10 min to isolate the plasma. The pituitary was homogenized with water in a certain ratio. The plasma and pituitary homogenates were pre-treated and then analyzed by LC-MS/MS to determine the concentrations of the test substances in the plasma and the pituitary. The plasma drug concentration data were processed in a non-compartmental model using WinNonlin™ Version 6.3 (Pharsight, Mountain View, CA) pharmacokinetic software.

[4] = Pituitary tissue distribution in SD rats after intragastric administration; format: in vivo; settings: i.g 12 mg/kg; for Plasma concentration: in ng/mL (unit assumed)
Experimental: as §1

human GnRHR [5] = target: T1, human GnRHR; assay: In vitro binding screening ([125I]-[D-Trp6]-LH-RH displacement, Chem-1 cell membrane); parameters: host or cells: Chem-1 cells (membrane preparation)
Experimental: 1 μM [D-Trp6]-LH-RH was used in the non-specific binding assay. The cell membrane was collected by filtration under vacuum and washed before liquid scintillation. The binding IC50 and IC90 of the compound were calculated using Prism.

T2 sequence (Q12809 whole entry): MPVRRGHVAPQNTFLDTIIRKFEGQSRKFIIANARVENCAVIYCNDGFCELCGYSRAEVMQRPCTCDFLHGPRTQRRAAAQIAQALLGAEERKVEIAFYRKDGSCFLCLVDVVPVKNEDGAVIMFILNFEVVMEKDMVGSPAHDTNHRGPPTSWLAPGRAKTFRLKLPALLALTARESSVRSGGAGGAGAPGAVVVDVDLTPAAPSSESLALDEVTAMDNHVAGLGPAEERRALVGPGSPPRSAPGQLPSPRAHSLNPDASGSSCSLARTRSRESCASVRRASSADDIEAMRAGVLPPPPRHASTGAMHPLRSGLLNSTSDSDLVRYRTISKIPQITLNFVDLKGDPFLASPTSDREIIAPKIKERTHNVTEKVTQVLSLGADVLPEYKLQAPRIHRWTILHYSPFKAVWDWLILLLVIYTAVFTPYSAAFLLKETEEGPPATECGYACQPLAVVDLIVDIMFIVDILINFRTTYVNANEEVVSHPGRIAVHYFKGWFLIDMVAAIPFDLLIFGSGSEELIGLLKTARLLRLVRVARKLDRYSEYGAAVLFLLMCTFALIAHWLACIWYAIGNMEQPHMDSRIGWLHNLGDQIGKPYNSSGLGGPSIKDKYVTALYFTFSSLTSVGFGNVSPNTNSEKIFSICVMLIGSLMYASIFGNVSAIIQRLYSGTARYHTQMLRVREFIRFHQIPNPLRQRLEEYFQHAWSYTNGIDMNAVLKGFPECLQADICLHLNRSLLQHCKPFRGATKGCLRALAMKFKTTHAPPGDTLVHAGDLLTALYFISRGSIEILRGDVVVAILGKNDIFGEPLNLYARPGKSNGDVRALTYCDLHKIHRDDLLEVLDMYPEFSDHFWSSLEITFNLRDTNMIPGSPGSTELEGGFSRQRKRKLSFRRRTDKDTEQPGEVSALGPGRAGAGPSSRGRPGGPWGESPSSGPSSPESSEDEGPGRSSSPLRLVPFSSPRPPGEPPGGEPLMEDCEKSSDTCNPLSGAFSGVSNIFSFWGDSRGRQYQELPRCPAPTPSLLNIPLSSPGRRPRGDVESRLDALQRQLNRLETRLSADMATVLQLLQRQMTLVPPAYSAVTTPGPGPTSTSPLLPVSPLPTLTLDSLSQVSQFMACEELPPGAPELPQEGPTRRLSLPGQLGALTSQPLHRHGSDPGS

In the case of `CCNC(=O)Nc1ccc(-c2sc3c(c2CN(C)C)c(=O)n(-c2ccc(OC)nn2)c(=O)n3Cc2c(F)cccc2F)cn1` [Formula I], the “Inhibitory effect on human GnRHR (conclusion)” value (human GnRHR [1]) was “significant inhibitory effect”, the “Inhibitory activity against the human hERG potassium channel (conclusion)” value [2] was “relatively low inhibitory activity” and the “Efflux ratio (conclusion)” value (Caco-2 cells) was “relatively low efflux ratio”. The “Absolute bioavailability relative to Relugolix” value [3] was 3.47 times, the Pituitary concentration ([4]; 1 h) was 2250 ± 474 and the Plasma concentration ([4]; 1 h) was 39.5 ± 14.0. For the same compound, the Pituitary concentration ([4]; 4 h) was 1841 ± 636, the Plasma concentration ([4]; 4 h) was 22.8 ± 2.5 and the Pituitary concentration ([4]; 12 h) was 1254 ± 494. The Plasma concentration ([4]; 12 h) was 9.70 ± 3.10 and the “Binding ability to human GnRHR (conclusion)” value (human GnRHR [5]) was “significant binding ability”.
